According to patent US11458132B2, “Quinolin-2(1H)-one inhibitors of Late SV40 Factor” (TRUSTEES OF BOSTON UNIVERSITY, priority 2020, dated 2022):

Key:
FH-B cells = assay: Analysis of microtubule features by immunofluorescence; assay type: cell-based, human
Method: Analysis of microtubule features by immunofluorescence: Because Y-27632 diminishes FQI1-induced cell compaction (FIGS. 10C and 10D) without affecting microtubule levels (FIGS. 9A and 9B), cells were pretreated with Y-27632 in order to maintain overall cellular shape, facilitating capture of structural or positional impact of FQI1 on microtubules. In addition, only cells with cell spreading areas larger than 1000 μm^2 were considered. Cells were seeded overnight in high n-dishes, treated as indicated in the figure legends, fixed with formaldehyde as described above, blocked in 5% BSA in PBS and stained overnight at 4° C. with anti-γ-tubulin (1:500, Abcam, ab11316) and anti-α-tubulin (1:500, Fisher Scientific, 62204). Samples were then incubated in goat anti-rabbit Cy5 (1:1000, Invitrogen, A10523), goat anti-mouse Alexa Fluor 546 (1:1000, Thermo Fisher Scientific, A11003), and Phalloidin-iFluor 488 Reagent. Hoechst 33342 and mounting medium were applied, before acquiring Z stack images at 60× magnification on an Olympus Fluoview 10i microscope.
Using ImageJ, binary Z projections of Phalloidin and Hoechst channel stacks were merged with Z projections with average intensity of the α-tubulin channels. The Phalloidin channel was used as the region of interest for measurement of “integrated density” of the total α-tubulin intensity, which was plotted into swarmplots.
To assess distribution of visible microtubule ends, the Hoechst, γ-tubulin, and α-tubulin stacks were converted into Z projections with maximum intensity. The Hoechst and γ-tubulin Z projections were thresholded and all channels were merged. A line was generated between the γ-tubulin signal and the center of the nucleus to identify the axis of cell movement; a line perpendicular to the first line and running through the center point of the nucleus divided the cell into posterior and anterior portions. Visible microtubule ends were counted using the Cell Counter plugin, excluding unattached microtubule fragments.

MC38 cells = assay: Syngeneic MC38 xenograft model in C57BL/6 mice; assay type: in vivo
Excerpt: Syngeneic and allogeneic xenograft models: We used 8-12 weeks-old athymic female mice for the allogeneic xenograft model and C57BL/6 mice for a syngeneic xenograft model, as described previously^26,27. All the mice were obtained from The Jackson Laboratory and housed at Boston University Medical Center based on the approval from the Institutional Animal Care and Use Committee. Each mouse was implanted subcutaneously on the dorsal surface and was monitored for tumor growth as measured with a VWR Digital Caliper. The tumor volume was calculated twice a week using the equation: length×width×height.
The mice were randomly separated into two groups once tumor volumes reached 100 mm^3. The FQI2-34 was suspended in a mixture of ethanol and DMSO. The mixture was agitated until the compound had completely dissolved. This solution was further diluted in 20% PEG 400 and water to give a final concentration of 2 mg/ml. FQI2-34 or vehicle was injected intraperitoneally daily at 5 mg/kg for 5 days, followed by a break for 2 days. After 21 days, both groups of mice were sacrificed, and the tumors were harvested.
Cell culture and other reagents: HT-29 cells were obtained from ATCC and grown in the Roswell Park Memorial Institute (RPMI) medium supplemented with 10% FBS and penicillin and streptomycin. Cells were injected with the growth-factor poor Matrigel (Millipore, catalogue number DLW354263) using a 23-gauge needle for a total volume of 200 microliters. The MC38 cell line was obtained from ATCC and grown in RPMI medium supplemented with 10% FBS and penicillin and streptomycin.
IHC was performed on the paraffin-embedded tumors as described previously^26-28. The manufacturer's protocol was used along with reagents from the Abcam Mouse and Rabbit Specific HRP/DAB IHC Detection Kit—Micro-polymer (ab236466). Primary antibodies and their dilutions used to detect the respective proteins were: Axin2 (Abcam, #ab32197, 1:100), β-catenin (BD Biosciences, #610154, 1:100), LSF (BD Biosciences, #610818, 1:100), SOX9 (Abcam, #ab185230, 1:100), Ki-67 (Cell Signaling, #8D5, 1:100).
All images and quantification were performed using the Nikon Eclipse TE2000 Inverted Microscope with the color camera at the Boston University School of Medicine (BUSM) Imaging Core. Random high-power field (hpf) images of every tumor sample were obtained. For quantification the signal was converted to grayscale, and the number and intensity of pixels were analyzed as integrated density by using Fiji. The integrated density of all the images was normalized to its area. The images were processed in ImageJ (National Institutes of Health, Bethesda, Md.) to quantitate the expression of SOX-9, AXIN-2, and LSF. Regions of interest were drawn and the expression was measured using integrated density normalized to the surface area. The average normalized integrated image densities from multiple hpfs were used to perform the correlational analysis between expression levels of pairs of proteins.

[1] = Plasma protein binding (PPB), human; assay type: in vitro ADME
[2] = xenografts, immunohistochemistry

CCOc1ccccc1C1CC(=O)Nc2cc3c(cc21)OCO3 (stereo not shown) [FQI1, 8-(2-ethoxyphenyl)-7,8-dihydro-[1,3]dioxolo[4,5-g]quinolin-6(5H)-one]
anterior-posterior patterning of visible microtubule ends (FH-B cells; 4 μM FQI1): largely unaffected
overall α-tubulin intensity (FH-B cells; 4 μM FQI1, 30 minutes, Y-27632 pretreated): significant decrease in overall α-tubulin intensity
increase in the number of individually discernible microtubule ends (FH-B cells; 4 μM FQI1, 30 minutes, vs vehicle): 2.7 fold

CCOc1cc(N(C)C)ccc1-c1cc(=O)[nH]c2cc3c(cc12)OCO3 [FQI2-34, 8-(4-(dimethylamino)-2-ethoxyphenyl)-[1,3]dioxolo[4,5-g]quinolin-6(5H)-one]
tumor volumes, lower than controls (MC38 cells; day 14 and day 21): ~2 fold
CRC mass on H&E stain (MC38 cells; xenografts): substantial reduction in CRC mass
Ki-67 levels (MC38 cells; [2]): suppressed
reduction in AXIN2 expression levels (MC38 cells; [2]): ~2 fold
reduction in SOX9 expression levels (MC38 cells; [2]): ~2 fold
reduction in number of cells with nuclear β-catenin (MC38 cells; [2]): 2.3 fold
fraction unbound [1]: 0.1
